One test relates to Helix pomatia. As to the kind of experiment: Inhibition of snail beta-mannosidase using p-nitrophenyl glycoside as substrate assessed as release of p-nitrophenol at 1000 uM by spectrometric analysis relative to control.
Another test concerns Prunus dulcis. Nature of the test: Inhibition of almond Beta-glucosidase using p-nitrophenyl glycoside as substrate assessed as release of p-nitrophenol at 1000 uM by spectrometric analysis relative to control.
The next test relates to Escherichia coli. As to the kind of experiment: Inhibition of Escherichia coli beta-glucuronidase using p-nitrophenyl glycoside as substrate assessed as release of p-nitrophenol at 1000 uM by spectrometric analysis relative to control.
The target of test [1] is T1, Alpha-mannosidase (Canavalia ensiformis) (UniProt C0HJB3).
T1 sequence (whole entry): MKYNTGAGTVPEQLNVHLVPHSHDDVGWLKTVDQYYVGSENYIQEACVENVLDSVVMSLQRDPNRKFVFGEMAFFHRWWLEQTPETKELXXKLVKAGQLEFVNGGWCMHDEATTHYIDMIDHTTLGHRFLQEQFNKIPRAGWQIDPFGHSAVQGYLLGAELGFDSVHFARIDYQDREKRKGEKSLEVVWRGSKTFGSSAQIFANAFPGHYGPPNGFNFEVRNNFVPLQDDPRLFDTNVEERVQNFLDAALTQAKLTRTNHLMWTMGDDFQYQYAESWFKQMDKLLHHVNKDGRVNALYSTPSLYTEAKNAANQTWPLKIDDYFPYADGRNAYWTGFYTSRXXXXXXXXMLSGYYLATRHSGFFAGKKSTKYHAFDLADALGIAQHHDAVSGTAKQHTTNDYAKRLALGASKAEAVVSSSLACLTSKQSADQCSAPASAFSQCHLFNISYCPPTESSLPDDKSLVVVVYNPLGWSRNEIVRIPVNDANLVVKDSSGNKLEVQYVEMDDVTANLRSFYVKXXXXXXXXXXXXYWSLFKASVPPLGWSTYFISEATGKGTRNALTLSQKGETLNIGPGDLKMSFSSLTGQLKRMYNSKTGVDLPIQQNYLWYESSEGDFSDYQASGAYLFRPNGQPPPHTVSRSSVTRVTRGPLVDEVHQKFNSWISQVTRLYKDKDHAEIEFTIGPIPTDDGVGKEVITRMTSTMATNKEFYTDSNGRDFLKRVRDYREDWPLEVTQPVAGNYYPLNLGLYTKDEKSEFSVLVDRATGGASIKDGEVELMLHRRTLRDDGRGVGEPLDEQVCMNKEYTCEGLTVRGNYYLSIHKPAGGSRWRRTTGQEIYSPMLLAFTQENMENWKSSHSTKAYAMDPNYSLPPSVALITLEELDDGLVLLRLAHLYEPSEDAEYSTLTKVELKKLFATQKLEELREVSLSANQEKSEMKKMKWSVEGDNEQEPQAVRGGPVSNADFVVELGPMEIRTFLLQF
Nature of the test: Inhibition of jack bean alpha-mannosidase using p-nitrophenyl glycoside as substrate assessed as release of p-nitrophenol at 1000 uM by spectrometric analysis relative to control.

For test [2], the species on record is Bos taurus. As to the kind of experiment: Inhibition of bovine liver beta-glucuronidase using p-nitrophenyl glycoside as substrate assessed as release of p-nitrophenol at 1000 uM by spectrometric analysis relative to control.
In test [3] the target is Alpha-galactosidase (Coffea arabica) (UniProt Q42656). Nature of the test: Inhibition of coffee bean alpha-galactosidase using p-nitrophenyl glycoside as substrate assessed as release of p-nitrophenol at 1000 uM by spectrometric analysis relative to control.
The subject of the next test is Penicillium decumbens. As to the kind of experiment: Inhibition of Penicillium decumbens alpha-L-rhamnosidase using p-nitrophenyl glycoside as substrate assessed as release of p-nitrophenol at 1000 uM by spectrometric analysis relative to control.
Another test is filed under the species Homo sapiens. Nature of the test: Inhibition of human lysosome beta-glucosidase using p-nitrophenyl glycoside as substrate assessed as release of p-nitrophenol at 1000 uM by spectrometric analysis relative to control.
The species named for test [4] is Bos taurus. As to the kind of experiment: Inhibition of bovine liver beta-glucosidase using p-nitrophenyl glycoside as substrate assessed as release of p-nitrophenol at 1000 uM by spectrometric analysis relative to control.
The species named for another test is Rattus norvegicus. As to the kind of experiment: Inhibition of rat intestinal Alpha-glucosidase using p-nitrophenyl glycoside as substrate assessed as p-nitrophenol release at 1000 uM by spectrometric analysis relative to control.
The species entered for another test is Sus scrofa. Nature of the test: Inhibition of porcine kidney Alpha alpha-trehalase using p-nitrophenyl glycoside as substrate assessed as release of p-nitrophenol at 1000 uM by spectrometric analysis relative to control.
Another test has as its system Aspergillus niger. Nature of the test: Inhibition of Aspergillus niger amyloglucosidase using p-nitrophenyl glycoside as substrate assessed as release of p-nitrophenol at 1000 uM by spectrometric analysis relative to control.
Test [5] addresses Alpha-glucosidase (Saccharomyces cerevisiae S288c) (UniProt P53341+P38158+P07265). As to the kind of experiment: Inhibition of yeast Alpha-glucosidase using p-nitrophenyl glycoside as substrate assessed as p-nitrophenol release at 1000 uM by spectrometric analysis relative to control. The test is classed as protein assay.
The species entered for test [6] is Bos taurus. As to the kind of experiment: Inhibition of bovine liver beta-galactosidase using p-nitrophenyl glycoside as substrate assessed as release of p-nitrophenol at 1000 uM by spectrometric analysis relative to control.
The next test deals with Oryza sativa. Nature of the test: Inhibition of rice Alpha-glucosidase using p-nitrophenyl glycoside as substrate assessed as p-nitrophenol release at 1000 uM by spectrometric analysis relative to control.
In test [7] the target is Alpha glucosidase (Homo sapiens) (UniProt O43451+P10253+P14410+Q2M2H8). Nature of the test: Inhibition of human Alpha-glucosidase using p-nitrophenyl glycoside as substrate assessed as p-nitrophenol release at 1000 uM by spectrometric analysis relative to control. In kind it is protein assay.
Test [8] can be described thus: Inhibition of human liver Alpha-mannosidase.

Chain of Alpha-galactosidase (Coffea arabica) (Q42656 16-378 limits assumed): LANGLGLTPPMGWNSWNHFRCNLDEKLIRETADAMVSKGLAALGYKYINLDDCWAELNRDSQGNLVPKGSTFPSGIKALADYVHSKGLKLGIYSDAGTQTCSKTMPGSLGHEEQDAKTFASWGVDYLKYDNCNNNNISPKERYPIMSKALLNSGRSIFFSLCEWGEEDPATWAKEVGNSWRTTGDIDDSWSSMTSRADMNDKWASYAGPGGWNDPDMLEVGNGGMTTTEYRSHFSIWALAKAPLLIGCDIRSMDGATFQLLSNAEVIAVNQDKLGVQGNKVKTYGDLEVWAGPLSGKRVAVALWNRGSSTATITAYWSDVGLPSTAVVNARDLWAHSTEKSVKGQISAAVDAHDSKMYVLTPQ

Consider `O[C@H]1[C@H]2[C@@H](O)C[C@@H](F)CN2C[C@H]1O`, for which the inhibition (usually the drop in the measured response relative to a control, in per cent) with Helix pomatia stood at 3.3%; in the test with Prunus dulcis, 5.3%; with Escherichia coli, 4.1%; in [1], 14.4%; in the test listed under Bos taurus [2], 15.1%; in test [3] it was 0%. Besides, the inhibition with Penicillium decumbens stood at 118%; in the test filed under Homo sapiens, 17.3%; in the test listed under Bos taurus [4] it was 19.9%; in the test listed under Rattus norvegicus it was 10.9%; in the test filed under Sus scrofa it was 4.6%; in the test with Aspergillus niger it was 1.4%. In addition, the inhibition was determined as 6.2% in [5], 29.2% in the test filed under Bos taurus [6], 14% in the test with Oryza sativa and 5.3% in test [7].

Consider `O[C@H]1[C@H]2[C@@H](O)CC(F)(F)CN2C[C@H]1O`, for which the inhibition came out at 0.8% in the test with Helix pomatia; 3.7% in the test on Prunus dulcis; 0% in the test on Escherichia coli; 12.2% in test [1]; 11.4% in the test filed under Bos taurus [2]; 0% in [3]. Moreover, the inhibition with Penicillium decumbens is 144%; in the test filed under Homo sapiens, 0%; in the test filed under Bos taurus [4], 5.8%; in the test listed under Rattus norvegicus it was 25%; in the test listed under Sus scrofa, 1.5%; with Aspergillus niger, 1.8%. The inhibition in [5] stood at 1.1%; in the test filed under Bos taurus [6] it was 0%; in the test on Oryza sativa, 2.5%; in test [7], 0.4%.

For the molecule `OC[C@@H]1[C@@H](O)[C@@H](O)[C@H]2[C@H](O)CCCN21`, the half-maximal inhibitory concentration (IC50) (commonly the concentration needed to halve the response being measured) in test [8] was 1.2 µM.

Regarding `O[C@@H]1[C@@H]2[C@H](O)C[C@@H](F)CN2C[C@@H]1O`, the inhibition in the test on Helix pomatia is 1.7%; with Prunus dulcis it was 4.7%; with Escherichia coli it was 0%; in test [1] it was 18.8%; in the test listed under Bos taurus [2] it was 0.1%; in [3], 0%. Also, the inhibition with Penicillium decumbens stood at 125%; in the test listed under Homo sapiens, 3.4%; in the test listed under Bos taurus [4], 9%; in the test filed under Rattus norvegicus it was 11.6%; in the test filed under Sus scrofa it was 11.7%; with Aspergillus niger, 11.4%. For the same molecule, the inhibition stood at 4.5% in test [5], 15% in the test listed under Bos taurus [6], 23.5% with Oryza sativa and 0% in test [7].

For the molecule `CC(=O)NCCCC[C@H]1C[C@@H](O)[C@@H]2[C@H](O)[C@H](O)CN2C1`, the concentration for half-maximal inhibition (IC50) in [8] came out at 51 µM.

As to `O[C@@H]1[C@@H]2[C@@H](O)C[C@H](F)CN2C[C@@H]1O`, the inhibition with Helix pomatia was 2.5%; in the test on Prunus dulcis it was 0%; with Escherichia coli it was 9.3%; in test [1], 3.9%; in the test listed under Bos taurus [2] it was 12.5%; in [3], 0%. Also, the inhibition turned out to be 0.43% in the test with Penicillium decumbens; 9.6% in the test listed under Homo sapiens; 16% in the test listed under Bos taurus [4]; 18.3% in the test listed under Rattus norvegicus; 17.7% in the test with Aspergillus niger; 4.5% in test [5]. Further, the values for the inhibition (in the test filed under Bos taurus [6]; in the test on Oryza sativa; in test [7]) were 11.7%, 0% and 5.1%, respectively.

The molecule `OC[C@H]1[C@@H](O)[C@@H](O)CN1Cc1ccc(I)cc1` had a concentration for half-maximal inhibition (IC50) in test [8] of 0.09 µM.

Turning to `OC[C@H]1[C@@H](O)[C@@H](O)CN1Cc1ccc(Br)cc1`, in [8], the IC50 was 0.09 µM.

In test [8], `O[C@@H]1[C@H](O)C[S+]2CCCS[C@H]12` (some centres not stated) displayed a half-maximal inhibitory concentration (IC50) of 97 µM.

In the case of `O=C(OC[C@H](NC[C@H]1OC[C@H](O)[C@@H]1O)c1ccccc1)c1ccc(Br)cc1`, the IC50 in test [8] worked out at 89 µM.

With `OC[C@@H](O)[C@H]1NC[C@@H](O)[C@H]1O`, in test [8], the half-maximal inhibitory concentration (IC50) amounted to 3.9 µM.

As for `OC[C@H](NC[C@H]1OC[C@H](O)[C@@H]1O)c1ccccc1`, the half-inhibitory concentration (IC50) in [8] stood at 4.2 µM.

For `O[C@@H]1[C@@H]2[C@@H](O)C[C@@H](F)CN2C[C@@H]1O`, the inhibition with Helix pomatia is 1.7%; in the test on Prunus dulcis, 0%; with Escherichia coli, 9.3%; in [1], 1.6%; in [3] it was 0%; with Penicillium decumbens, 5.2%. In addition, the inhibition in the test filed under Homo sapiens worked out at 43.5%; in the test listed under Bos taurus [4], 25.6%; in the test listed under Rattus norvegicus, 47.3%; in the test listed under Sus scrofa, 36%; in the test on Aspergillus niger, 2.3%; in test [5], 6.2%. Besides, the values for the inhibition (in the test listed under Bos taurus [6]; in the test on Oryza sativa; in test [7]) were 21.7%, 27.3% and 15.6%, respectively.

As to `O[C@@H]1[C@@H]2[C@@H](O)CC(F)(F)CN2C[C@@H]1O`, the inhibition in the test on Helix pomatia turned out to be 0%; in the test with Prunus dulcis it was 10.5%; with Escherichia coli it was 0%; in [1], 28.2%; in the test listed under Bos taurus [2], 14.1%; in test [3] it was 0%. In addition, the inhibition with Penicillium decumbens turned out to be 2.2%; in the test filed under Homo sapiens, 0%; in the test filed under Bos taurus [4] it was 38.5%; in the test listed under Rattus norvegicus it was 0%; in the test listed under Sus scrofa, 28.4%; in the test with Aspergillus niger, 10.9%. Moreover, the inhibition (in test [5]; in the test with Oryza sativa; in test [7]) was 0% each time.

In test [8], `Cc1ccc(C(=O)C[C@H]2CC[C@@H](O)[C@@H]3[C@H](O)[C@H](O)CN23)cc1` had an IC50 of 29 µM.

With `O[C@@H]1[C@@H]2[C@H](O)C[C@H](F)CN2C[C@@H]1O`, the inhibition in the test on Helix pomatia was 0%; with Prunus dulcis, 3.2%; in the test on Escherichia coli, 28.9%; in [1], 0%; in [3], 0%; with Penicillium decumbens, 52%. Further, the inhibition was 38.5% in the test filed under Bos taurus [4]; 0.5% in the test filed under Sus scrofa; 10.9% with Aspergillus niger; 18% in test [5]; 41.7% in the test listed under Bos taurus [6]; 0% with Oryza sativa. Moreover, in [7], the inhibition was 37.6%.

Regarding `O[C@H]1[C@H]2[C@@H](O)C[C@H](F)CN2C[C@H]1O`, the inhibition came out at 21.7% in the test on Helix pomatia; 3.2% in the test with Prunus dulcis; 0% in the test on Escherichia coli; 14.9% in test [1]; 3.1% in the test listed under Bos taurus [2]; 0% in test [3]. In addition, the inhibition stood at 11.3% with Penicillium decumbens; 7.1% in the test filed under Homo sapiens; 3.8% in the test listed under Bos taurus [4]; 0% in the test filed under Rattus norvegicus; 2.3% in the test with Aspergillus niger; 3.4% in test [5]. The inhibition in the test filed under Bos taurus [6] is 0%; with Oryza sativa it was 15.9%; in test [7], 3%.

`NC[C@@H]1[C@@H](O)[C@@H](O)[C@H]2[C@H](O)CCCN21`: affinity in test [8] was put at a Ki of 0.097 µM.

As for `OC[C@H]1[C@@H](O)[C@@H](O)CN1Cc1ccccc1`, the half-inhibitory concentration (IC50) in test [8] was determined as 0.09 µM.

Source of the values: ChEMBL document CHEMBL6096649, “Enantiomeric C-6 fluorinated swainsonine derivatives as highly selective and potent inhibitors of α-mannosidase and α-l-rhamnosidase: Design, synthesis and structure-activity relationship study” (Eur J Med Chem, 2025).
